Assay: in vitro
Conditions: human, hela cells, % viability

| Structure (SMILES) | viability at 28.5 h, 10 µM [%] |
| --- | --- |
| Cc1cccc(C)c1NC(=O)Nc1cc(N2CCNCC2)c2occc2c1 [CBK061748C] | 82.8 |
| COc1ccc(Br)c(C(=O)Nc2cc(N3CCNCC3)c3occc3c2)c1 [CBK061757C] | 115 |
| COc1cccc(OCCN2CCC3(C2)NCCc2c3[nH]c3cc(OC)ccc23)c1 (centres unmarked) [CBK061794] | 94.3 |
| COc1cc(-c2ccc3ccc(N)nc3n2)cc(OC)c1OC [CBK061866] | 90.6 |
| CCCCCC/C=C/c1cnc2nc(NC(=O)NCC)ccc2c1 [CBK061880] | 93.3 |
| CC(C)(C)c1ccc(-c2cnc3nc(N)ccc3c2)cc1 [CBK061888] | 88.3 |
| CS(=O)(=O)c1ccc(-c2cnc3nc(N)ccc3c2)cc1 [CBK061916] | 92.9 |
| Nc1cc2cccnc2c(-c2ccc(OC(F)(F)F)cc2)n1 [CBK061926] | 90 |
| CS(=O)(=O)Nc1cc2cccnc2c(-c2ccccc2)n1 [CBK061928] | 95.5 |
| O=C(c1cc(C(F)(F)F)cc(C(F)(F)F)c1)N1CCC(O)(c2ccc(Cl)cc2)CC1 [CBK061972] | 96.9 |
| COc1ccc(S(=O)(=O)Nc2cc(N3CCCC3)c3occc3c2)cc1OC [CBK061975] | 97.2 |
| O=[N+]([O-])c1cccc(S(=O)(=O)Nc2nnc(C(F)(F)F)s2)c1 [CBK062002] | 118 |
| O=S(=O)(Nc1nnc(C(F)(F)F)s1)c1ccc(-c2ccccn2)s1 [CBK062016] | 91.9 |
| Cc1c(S(=O)(=O)Nc2nnc(C(F)(F)F)s2)sc2ccc(Cl)cc12 [CBK062018] | 81.9 |
| O=[N+]([O-])c1cc(S(=O)(=O)Nc2nnc(C(F)(F)F)s2)ccc1Cl [CBK062021] | 105 |
| O=C(O)c1cc(S(=O)(=O)Nc2nnc(C(F)(F)F)s2)c(F)cc1Cl [CBK062022] | 95 |
| O=C(O)c1ccc(S(=O)(=O)Nc2nnc(C(F)(F)F)s2)cc1 [CBK062023] | 91.5 |
| Cc1noc(C)c1S(=O)(=O)NC1CCN(Cc2ccccc2)CC1 [CBK062028] | 83.4 |
| O=S(=O)(NC1CCN(Cc2ccccc2)CC1)c1cccc2nsnc12 [CBK062029] | 80.8 |
| O=S(=O)(NC1CCN(Cc2ccccc2)CC1)c1cccc2nonc12 [CBK062030] | 94.6 |
| Cc1noc(C)c1S(=O)(=O)Nc1ccnn1C [CBK062073] | 90.1 |
| Cc1c(S(=O)(=O)Nc2ccnn2C)cnn1-c1ccccc1 [CBK062079] | 97.5 |

| Structure (SMILES) | viability at 28.5 h, 10 µM [%] |
| --- | --- |
| Cn1nccc1NS(=O)(=O)c1ccc(-c2cnco2)s1 [CBK062088] | 94.4 |
| Cn1nccc1NS(=O)(=O)c1cc(C(F)(F)F)cc(C(F)(F)F)c1 [CBK062090] | 92.6 |
| O=S(=O)(Nc1ccc(C(O)(C(F)(F)F)C(F)(F)F)cc1)c1cccc2nsnc12 [CBK062096] | 108 |
| Cc1c(S(=O)(=O)Nc2ccc(C(O)(C(F)(F)F)C(F)(F)F)cc2)cnn1-c1ccccc1 [CBK062099] | 92.1 |
| O=S(=O)(Nc1ccc(C(O)(C(F)(F)F)C(F)(F)F)cc1)c1ccc(N2CCOCC2)nc1 [CBK062100] | 94.9 |
| O=S(=O)(Nc1ccc(C(O)(C(F)(F)F)C(F)(F)F)cc1)c1ccccc1Br [CBK062101] | 96.3 |
| O=S(=O)(Nc1ccc(C(O)(C(F)(F)F)C(F)(F)F)cc1)c1ccc(Cl)c(Cl)c1 [CBK062102] | 111 |
| O=S(=O)(Nc1ccc(C(O)(C(F)(F)F)C(F)(F)F)cc1)c1ccc(-c2ccon2)s1 [CBK062105] | 91.2 |
| Cc1nn(C)c(Cl)c1S(=O)(=O)NCc1ccc(C(F)(F)F)c(F)c1 [CBK062111] | 93.8 |
| Cc1c(S(=O)(=O)NCc2ccc(C(F)(F)F)c(F)c2)cnn1-c1ccccc1 [CBK062115] | 108 |
| Cc1nn(C)c(Cl)c1S(=O)(=O)Nc1cccc(-c2nnn[nH]2)c1 [CBK062127] | 96 |
| CCc1nnc(NS(=O)(=O)c2cc(C(=O)O)c(Cl)cc2F)s1 [CBK062195] | 90.9 |
| Cc1nn(C)c(Cl)c1S(=O)(=O)Nc1ccc2nsnc2c1 [CBK062222] | 69.6 |
| CN1CCOc2cc(S(=O)(=O)Nc3cccnc3N3CCOCC3)ccc21 [CBK062299] | 108 |
| Cc1cnc(CNS(=O)(=O)c2c(C)noc2C)cn1 [CBK062328] | 104 |
| Cc1cc(OC(F)(F)F)ccc1NS(=O)(=O)c1ccc(-c2ccon2)s1 [CBK062361] | 86.7 |
| O=S(=O)(Nc1nnn[nH]1)c1cccc(C(F)(F)F)c1 [CBK062377] | 108 |
| Cc1noc(C)c1S(=O)(=O)Nc1nnn[nH]1 [CBK062378] | 112 |
| O=S(=O)(Nc1nnn[nH]1)c1ccc(N2CCOCC2)nc1 [CBK062385] | 99 |
| CN1CCOc2cc(S(=O)(=O)Nc3nnn[nH]3)ccc21 [CBK062389] | 99.1 |
| O=S(=O)(Nc1nnn[nH]1)c1ccc(-c2ccon2)s1 [CBK062391] | 97.7 |
| O=S(=O)(Nc1nnn[nH]1)c1ccc(-c2cnco2)s1 [CBK062394] | 109 |

| Structure (SMILES) | viability at 28.5 h, 10 µM [%] |
| --- | --- |
| O=S(=O)(c1ccccc1Br)N1CCOCC1 [CBK062404] | 96.9 |
| O=S(=O)(c1ccc(Br)cc1C(F)(F)F)N1CCOCC1 [CBK062405] | 102 |
| CN1CCN(S(=O)(=O)c2cccc(C(F)(F)F)c2)CC1 [CBK062425] | 103 |
| Cc1nn(C)c(Cl)c1S(=O)(=O)N1CCN(C)CC1 [CBK062426] | 106 |
| CN1CCN(S(=O)(=O)c2cccc3nsnc23)CC1 [CBK062428] | 102 |
| CN1CCN(S(=O)(=O)c2ccc3oc(=O)ccc3c2)CC1 [CBK062431] | 118 |
| CN1CCN(S(=O)(=O)c2ccccc2Br)CC1 [CBK062435] | 93.2 |
| O=S(=O)(Nc1ccc2[nH]ncc2c1)c1ccc(Oc2ccccc2)cc1 [CBK062522] | 82.9 |
| O=[N+]([O-])c1cc(S(=O)(=O)Nc2ccc3[nH]ncc3c2)ccc1Cl [CBK062537] | 84.6 |
| Cc1noc(C)c1S(=O)(=O)Nc1cc(C(F)(F)F)ccc1N1CCOCC1 [CBK062545] | 90.4 |
| Cc1c(S(=O)(=O)Nc2cc(C(F)(F)F)ccc2N2CCOCC2)cnn1-c1ccccc1 [CBK062551] | 99.7 |
| O=S(=O)(Nc1cc(C(F)(F)F)ccc1N1CCOCC1)c1ccc(-c2ccccn2)s1 [CBK062557] | 79.5 |
| O=S(=O)(Nc1cccc2nonc12)c1ccccc1Br [CBK062577] | 102 |
| O=S(=O)(Nc1nnn[nH]1)c1ccc(-c2ccccn2)s1 [CBK062589] | 106 |
| Cn1nc(-c2ccc(S(=O)(=O)NCCN3CCNC3=O)s2)cc1C(F)(F)F [CBK062610] | 91.6 |
| CC(=O)Nc1nonc1-c1nc2ccccc2n1CCC#N [CBK062641] | 100 |
| CCn1c(-c2nonc2NC(C)=O)nc2ccccc21 [CBK062645] | 80 |
| CCCCCCC(C)n1c(-c2nonc2N)nc2ccccc21 (centres unmarked) [CBK062648] | 94.2 |
| N#Cc1nonc1NCn1nnc2ccccc21 [CBK062650] | 81.7 |
| N#CCn1nnc(-c2ccc3c(c2)OCO3)n1 [CBK062663] | 98.7 |
| CCN(C(=O)c1ccc(=O)[nH]c1)C(CC1CCCCC1)c1ccccc1 (centres unmarked) [CBK062678] | 91.1 |
| CC(C)CN(CC(=O)NC1(c2ccccc2)CCC1)C(=O)N(C)C [CBK062704] | 96.1 |

| Structure (SMILES) | viability at 28.5 h, 10 µM [%] |
| --- | --- |
| O=S(=O)(c1ccc(C(F)(F)F)cc1Cl)N1CCN(Cc2ccc(F)cc2F)CC1 [CBK062739] | 107 |
| Cc1cc(CN2CCN(S(=O)(=O)c3ccc(-c4ccccc4)cc3)CC2)cc(C)c1O [CBK062747] | 115 |
| N#Cc1ccc(CN2CCN(S(=O)(=O)c3ccc(-c4ccccc4)cc3)CC2)cc1 [CBK062752] | 105 |
| CCOc1ccc(S(=O)(=O)N2CCCN(Cc3ccc(F)cc3F)CC2)c2cccnc12 [CBK062757] | 109 |
| CCOc1ccc(S(=O)(=O)N2CCCN(CC(C)C)CC2)c2cccnc12 [CBK062758] | 97 |
| CCOc1ccc(S(=O)(=O)N2CCCN(Cc3ccc(C#N)cc3)CC2)c2cccnc12 [CBK062759] | 107 |
| N#Cc1cc(CN2CCCN(S(=O)(=O)c3ccc(C(=O)c4ccccc4)cc3)CC2)ccc1F [CBK062768] | 109 |
| O=C(c1ccccc1)c1ccc(S(=O)(=O)N2CCCN(Cc3c[nH]nc3-c3ccccc3)CC2)cc1 [CBK062773] | 85.1 |
| O=C(c1ccccc1)c1ccc(S(=O)(=O)N2CCCN(Cc3cc(F)c(F)c(F)c3)CC2)cc1 [CBK062777] | 91.2 |
| CCOC(=O)C1CC1CN1CCN(S(=O)(=O)c2ccc(OCC)c3ncccc23)CC1 (centres unmarked) [CBK062785] | 92.9 |
| O=S(=O)(c1ccc(-n2cnc(Cl)c2Cl)cc1)N1CCCN(Cc2csc(-c3ccccc3)n2)CC1 [CBK062790] | 104 |
| CCOc1ccc(S(=O)(=O)N2CCN(Cc3cccc(F)c3C)CC2)c2cccnc12 [CBK062794] | 78.3 |
| CCOc1ccc(S(=O)(=O)N2CCN(Cc3cc(C(=O)OC)n(C)c3)CC2)c2cccnc12 [CBK062796] | 92.6 |
| O=S(=O)(c1ccc(-n2cnc(Cl)c2Cl)cc1)N1CCN(Cc2ccc(O)c(F)c2)CC1 [CBK062803] | 95.8 |
| COC(=O)CCc1ccc(S(=O)(=O)N2CCN(Cc3ccc(O)c(F)c3)CC2)cc1 [CBK062813] | 88.9 |
| COC(=O)CCc1ccc(S(=O)(=O)N2CCN(Cc3cc(C)c(O)c(C)c3)CC2)cc1 [CBK062814] | 113 |
| CCC(C)(C)c1ccc(S(=O)(=O)N2CCN(Cc3cccc4cccnc34)CC2)cc1 [CBK062830] | 98.1 |
| CCC(C)(C)c1ccc(S(=O)(=O)N2CCN(Cc3c(C)nn(C)c3C)CC2)cc1 [CBK062835] | 97.2 |
| COc1ccc(CN2CCCN(S(=O)(=O)c3ccc(C(=O)c4ccccc4)cc3)CC2)cc1F [CBK062855] | 97.7 |
| CCCC(=O)c1ccc(S(=O)(=O)N2CCN(CCCOC3CCCCO3)CC2)cc1 (centres unmarked) [CBK062858] | 96.6 |

— publication PMC12040169 (PLOS Biology, 2025)
